Values of other authors as cited in patent US8034766B2 (priority 2006, dated 2011).

System: prion
Conditions: in vivo

Question: For `CC(=O)OO` [Peracetic acid, peracetic acid], which “onward transmission rate following treatment” value is on record?
Answer: 100%
